Data as given in article PMC9655717, “New Molecules of Diterpene Origin with Inhibitory Properties toward α-Glucosidase” (International Journal of Molecular Sciences, 2022).

Assays:
Assay in all cases: Antimicrobial broth microdilution
Assay type in all cases: cell-based
[1] = system: Bacillus subtilis (ATCC 6633); settings: ATCC6633, B. subtilis
Method: (§1) Table S2. The result of antimicrobial tests of compounds 38, 45, 48 and 50.
(§2) Gram (+) strains Gram (-) strains Fungi
(§3) Compound Values (µg/ml) S. aureus B. L. S. E. P. C. subtilis fermentum enterica coli aeruginosa albican
(§4) The antimicrobial activity was determined by broth microdilution method as reported by. Broth dilution testing is one of the common methods used for determination of the MICs and IC50. The compounds are examined for visible bacterial growth as evidenced by turbidity. […]
(§5) S1.5. In vitro antimicrobial activity study of compounds 38, 45, 48 and 50 The Gram-positive bacteria: Bacillus subtilis (ATCC 6633), Lactobacillus fermentum (N4), Staphylococcus aureus (ATCC 13709); Gram -negative bacteria: Escherichia coli (ATCC 25922), Pseudomonas aeruginosa (ATCC 15442), Salmonella enterica; Yeast: Candida albicans (ATCC 10231) were obtained from American Type Culture Collection. The bacterial […]
(§6) Sabourand 2% dextrose broth, were purchased from Merck. […]
(§7) remaining at –80 0 C. Before assay, they were activated by culture medium and, adjusted the concentration to 5x10^5 CFU/mL. 10 μL of each concentration of each test […]
(§8) further incubated at 37 °C within 16-24h. The experiment was triplicated. Positive […]
(§9) medium without bacteria as a negative control. Ampicillin was used as a reference […]
(§10) inhibiting 50% the visible growth of the tested microorganisms. MIC, IC50 values are typically expressed as molar concentration. […]
(§11) treated with sample different concentrations on 96-well plates. Untreated cells represented the controls. […]
(§12) crystals are visible. Remove MTT and add DMSO solution (100 μL). The optical density […]
(§13) are evaluated to have cytotoxic activity.

[2] = system: Candida albicans (ATCC 10231); settings: ATCC10231, C. albican
Method: as §1, §2, §3, §4, §5, §6, §7, §8, §9, §10, §11, §12, §13

[3] = system: Escherichia coli (ATCC 25922); settings: ATCC25922, E. coli
Method: as §1, §2, §3, §4, §5, §6, §7, §8, §9, §10, §11, §12, §13

[4] = system: Lactobacillus fermentum (N4); settings: L. fermentum
Method: as §1, §2, §3, §4, §5, §6, §7, §8, §9, §10, §11, §12, §13

[5] = system: Pseudomonas aeruginosa (ATCC 15442); settings: ATCC15442, P. aeruginosa
Method: as §1, §2, §3, §4, §5, §6, §7, §8, §9, §10, §11, §12, §13

[6] = system: Salmonella enterica; settings: S. enterica
Method: as §1, §2, §3, §4, §5, §6, §7, §8, §9, §10, §11, §12, §13

[7] = system: Staphylococcus aureus (ATCC 13709); settings: ATCC13709, S. aureus
Method: as §1, §2, §3, §4, §5, §6, §7, §8, §9, §10, §11, §12, §13

C#CCOC(=O)C1(C)CCCC2(C)C1CCC13C=C(C(C)C)C(CC12)c1c(O)cc2c(C(=O)OC)c(C)[nH]c2c13 (centres unmarked) [Compound 45, Methyl 7-propynyl 1-hydroxy-13-isopropyl-7,10a,2′-trimethyl-5,6,6b,7,8,9,10,10a,10b,11,12,13-dodecahydro-12,4b-ethenophenanthro [2,1-g]indole-7,1′-dicarboxylate]
> 256 µg/mL: IC50 [1] | MIC [1] | IC50 [2] | MIC [2] | IC50 [3] | MIC [3] | IC50 [4] | MIC [4] | IC50 [5] | MIC [5] | IC50 [6] | MIC [6] | IC50 [7] | MIC [7]
